Laboratory results published in patent US10738028B2, “Spiro three-membered ring, spiro five-membered ring peptide deformylase inhibitor and use thereof in antibacteria and anti-tumor” (priority 2016, dated 2020).
Values after ≈ are worked out from the molar mass of the structure shown.

Tests used:
[1] = test system: methicillin-sensitive Staphylococcus aureus (MSSA); experiment: MIC, two-fold agar dilution (CLSI), clinical isolates; format: cell-based
In short: (§1)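 MIC values come from two-fold agar dilution run per CLSI antimicrobial susceptibility testing procedure.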

[2] = test system: methicillin-resistant Staphylococcus aureus (MRSA); experiment: as above; format: cell-based
In short: as §1

[3] = test system: methicillin-resistant Staphylococcus epidermidis (MRSE); experiment: as above; format: cell-based
In short: as §1

[4] = test system: methicillin-sensitive Staphylococcus epidermidis (MSSE); experiment: as above; format: cell-based
In short: as §1

[5] = test system: Enterococcus faecalis (EFA); experiment: as above; format: cell-based
In short: as §1

[6] = test system: Escherichia coli (including ESBLs, non-ESBLs); experiment: as above; format: cell-based
In short: as §1

the test strains = experiment: MIC against the test strains (strain not given); format: cell-based; settings: read-out: MIC (azole amide bioisosteres)
Excerpt: 1. The invention adopts the two-fold agar dilution method recommended by the operating procedure of antimicrobial susceptibility testing set by American Clinical and Laboratory Standards Institute (CLSI) to determine the Minimum Inhibitory Concentration (MIC) of the test samples against the tested strains.

[7] = test system: methemoglobin in blood samples of three healthy volunteers; experiment: Toxicity on methemoglobin in vitro (whole blood with S9 and NADPH, absorbance at 630 nm); format: cell-based, human; settings: 500 μM compound; whole blood + S9 + NADPH; 5 hours at 37° C.
In short: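 Fresh EDTA whole blood from three healthy volunteers incubated 5 h at 37 °C with human liver S9 (2 mg/mL), NADPH-generating system and compound at 500 μM final. Lysed in 1% Triton X-100; MetHb % from 630 nm absorbance relative to ferricyanide-oxidized blood.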

[8] = test system: HCT-116 colorectal cancer cell line; experiment: CCK-8 proliferation inhibition; format: cell-based; settings: concentration of 30 μM, 72 hours, CCK-8; for inhibition at 30 µM: Homo sapiens, HCT-116, 72 h, read-out: HCT116 inhibition rate/%
In short: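 Growth inhibition is read by CCK-8 (1:10 dilution) after 72 h of compound exposure. HCT-116 cells grow in McCoy's 5A containing 10% newborn bovine serum at 2000 cells/well, with 1‰ DMSO as vehicle control.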

[9] = test system: Enterococcus faecium (EFM); experiment: MIC, two-fold agar dilution (CLSI), clinical isolates; format: cell-based
In short: as §1

[10] = test system: Streptococcus pneoumoniae (SPN); experiment: as above; format: cell-based
In short: as §1

[11] = test system: Moraxella catarrhalis (BCA); experiment: as above; format: cell-based
In short: as §1

[12] = test system: BEL-7402 liver cancer cell line; experiment: CCK-8 proliferation inhibition; format: cell-based; settings: concentration of 30 μM
In short: (§2)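 Plating at 2000 cells/well, then incubation overnight at 37° C. Next, a range of compound concentrations for 72 hours (control 1‰ DMSO). Finally, medium decanted and CCK-8 diluted 1:10 added.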

[13] = test system: MGC-803 gastric cancer cell line; experiment: CCK-8 proliferation inhibition; format: cell-based; settings: concentration of 30 μM
In short: as §2

[14] = test system: A549 lung cancer cell line; experiment: CCK-8 proliferation inhibition; format: cell-based; settings: Homo sapiens, A549, 72 h, concentration of 30 μM
In short: as §2

SMILES: CCCC[C@H](CN(O)C=O)C(=O)N1CC2(CC2)C[C@H]1c1nnc(-c2ccccn2)o1 [Example 12, N-hydroxy-N—((R)-2-((S)-6-(5-(pyridin-2-yl)-1,3,4-oxadiazol-2-yl)-5-azaspiro[2.4]heptane-5-carbonyl)hexyl)carboxamide]
- MIC (anti-bacterial activity) ([1]; strain MSSA 14-1): 4 µg/mL (≈ 9.67 µM)
- MIC (anti-bacterial activity) ([1]; strain MSSA 14-2): 2 µg/mL (≈ 4.84 µM)
- MIC (anti-bacterial activity) ([1]; strain MSSA 14-3): 2 µg/mL (≈ 4.84 µM)
- MIC (anti-bacterial activity) ([1]; strain MSSA 14-4): 2 µg/mL (≈ 4.84 µM)
- MIC (anti-bacterial activity) ([2]; strain MRSA 14-1): 4 µg/mL (≈ 9.67 µM)
- MIC (anti-bacterial activity) ([2]; strain MRSA 14-2): 4 µg/mL (≈ 9.67 µM)
- MIC (anti-bacterial activity) ([2]; strain MRSA 14-4): 4 µg/mL (≈ 9.67 µM)
- MIC (anti-bacterial activity) ([2]; strain MRSA 14-5): 2 µg/mL (≈ 4.84 µM)
- MIC (anti-bacterial activity) ([2]; strain printed MRSA 14-1 (second line of that name, r23, before MRSE 14-2)): 1 µg/mL (≈ 2.42 µM)
- MIC (anti-bacterial activity) ([3]; strain MRSE 14-2): 0.5 µg/mL (≈ 1.21 µM)
- MIC (anti-bacterial activity) ([3]; strain MRSE 14-3): 0.5 µg/mL (≈ 1.21 µM)
- MIC (anti-bacterial activity) ([3]; strain MRSE 14-4): 4 µg/mL (≈ 9.67 µM)
- MIC (anti-bacterial activity) ([4]; strain MSSE 14-1): 1 µg/mL (≈ 2.42 µM)
- MIC (anti-bacterial activity) ([4]; strain MSSE 14-2): 1 µg/mL (≈ 2.42 µM)
- MIC (anti-bacterial activity) ([4]; strain MSSE 14-3): 0.5 µg/mL (≈ 1.21 µM)
- MIC (anti-bacterial activity) ([4]; strain MSSE 14-4): 1 µg/mL (≈ 2.42 µM)
- MIC (anti-bacterial activity) ([5]; strain EFA 14-1): 4 µg/mL (≈ 9.67 µM)
- MIC (anti-bacterial activity) ([5]; strain EFA 14-2): 8 µg/mL (≈ 19.3 µM)
- MIC (anti-bacterial activity) ([5]; strain EFA 14-3): 8 µg/mL (≈ 19.3 µM)
- MIC (anti-bacterial activity) ([5]; strain EFA 14-5): 8 µg/mL (≈ 19.3 µM)
- MIC (anti-bacterial activity) ([6]; strain ECO+ 14-1): 0.5 µg/mL (≈ 1.21 µM)
- MIC (anti-bacterial activity) ([6]; strain ECO+ 14-2): 64 µg/mL (≈ 155 µM)
- MIC (anti-bacterial activity) ([6]; strain ECO− 14-1): 128 µg/mL (≈ 310 µM)
- MIC (anti-bacterial activity) ([6]; strain ECO− 14-2): 64 µg/mL (≈ 155 µM)
- MIC (the test strains): 0.5 to 2 µg/mL (≈ 1.21 to 4.84 µM)
- MetHb % (n = 3) [7]: 1.22 ± 0.02%
- inhibition at 30 µM [8]: 13%

SMILES: O=C(C[C@@H](CC1CCCC1)C(=O)N1CC2(CC2)C[C@H]1c1nc2ccccc2[nH]1)NO [Example 75, (R)-4-((S)-6-(1H-benzimidazol-2-yl)-5-azaspiro[2.4]heptane-5-yl)-3-(cyclopentylmethyl)-N-hydroxy-4-oxobutanamide]
- Anti-bacterial activity (MIC), strain MSSA 15-3 ([1]; clinical isolate MSSA 15-3): 2 µg/mL
- Anti-bacterial activity (MIC), strain MSSA 15-4 ([1]; clinical isolate MSSA 15-4): 0.5 µg/mL
- Anti-bacterial activity (MIC), strain MSSA 15-5 ([1]; clinical isolate MSSA 15-5): 0.5 µg/mL
- Anti-bacterial activity (MIC), strain MSSA 15-6 ([1]; clinical isolate MSSA 15-6): 16 µg/mL
- Anti-bacterial activity (MIC), strain MRSA 15-1 ([2]; clinical isolate MRSA 15-1): 1 µg/mL
- Anti-bacterial activity (MIC), strain MRSA 15-2 ([2]; clinical isolate MRSA 15-2): 2 µg/mL
- Anti-bacterial activity (MIC), strain MRSA 15-3 ([2]; clinical isolate MRSA 15-3): 1 µg/mL
- Anti-bacterial activity (MIC), strain MRSA 15-4 ([2]; clinical isolate MRSA 15-4): 1 µg/mL
- Anti-bacterial activity (MIC), strain MRSE 15-1 ([3]; clinical isolate MRSE 15-1): 1 µg/mL
- Anti-bacterial activity (MIC), strain MRSE 15-2 ([3]; clinical isolate MRSE 15-2): 2 µg/mL
- Anti-bacterial activity (MIC), strain MRSE 15-3 ([3]; clinical isolate MRSE 15-3): 4 µg/mL
- Anti-bacterial activity (MIC), strain MRSE 15-7 ([3]; clinical isolate MRSE 15-7): 4 µg/mL
- Anti-bacterial activity (MIC) ([9]; strain EFM 15-1): > 32 µg/mL
- Anti-bacterial activity (MIC) ([9]; strain EFM 15-2): > 32 µg/mL
- Anti-bacterial activity (MIC) ([9]; strain EFM 15-3): > 32 µg/mL
- Anti-bacterial activity (MIC) ([9]; strain EFM 15-4): 2 µg/mL
- Anti-bacterial activity (MIC) ([9]; strain EFM 15-5): 2 µg/mL
- Anti-bacterial activity (MIC) ([9]; strain EFM 15-6): 2 µg/mL
- Anti-bacterial activity (MIC), strain MSSE 15-3 ([4]; clinical isolate MSSE 15-3): 1 µg/mL
- Anti-bacterial activity (MIC), strain MSSE 15-4 ([4]; clinical isolate MSSE 15-4): 1 µg/mL
- Anti-bacterial activity (MIC), strain MSSE 15-5 ([4]; clinical isolate MSSE 15-5): 1 µg/mL
- Anti-bacterial activity (MIC), strain MSSE 15-6 ([4]; clinical isolate MSSE 15-6): 0.5 µg/mL
- Anti-bacterial activity (MIC) ([10]; strain SPN 16-2): 1 µg/mL
- Anti-bacterial activity (MIC) ([10]; strain SPN 16-4): 0.5 µg/mL
- Anti-bacterial activity (MIC) ([11]; strain BCA 14-1): 4 µg/mL
- Anti-bacterial activity (MIC) ([11]; strain BCA 14-4): 8 µg/mL
- Anti-bacterial activity (MIC) ([11]; strain BCA 14-5): 2 µg/mL
- Anti-bacterial activity (MIC) ([11]; strain BCA 14-6): 8 µg/mL
- Anti-bacterial activity (MIC) ([11]; strain BCA 14-7): 4 µg/mL
- Anti-bacterial activity (MIC) ([11]; strain BCA 14-8): 4 µg/mL
- Anti-bacterial activity (MIC) ([11]; strain BCA 14-10): 2 µg/mL
- Anti-bacterial activity (MIC) ([5]; strain EFA 15-1): > 32 µg/mL
- Anti-bacterial activity (MIC) ([5]; strain EFA 15-2): > 32 µg/mL
- Anti-bacterial activity (MIC) ([5]; strain EFA 15-3): > 32 µg/mL
- Anti-bacterial activity (MIC) ([5]; strain EFA 15-4): > 32 µg/mL
- Anti-bacterial activity (MIC) ([5]; strain EFA 15-5): > 32 µg/mL
- Anti-bacterial activity (MIC) ([5]; strain EFA 15-6): > 32 µg/mL
- Anti-bacterial activity (MIC) ([5]; strain EFA 15-9): > 32 µg/mL
- Anti-bacterial activity (MIC), strain ECO+ 15-1 ([6]; clinical isolate ECO+ 15-1): 16 µg/mL
- Anti-bacterial activity (MIC), strain ECO+ 15-2 ([6]; clinical isolate ECO+ 15-2): 32 µg/mL
- Anti-bacterial activity (MIC), strain ECO+ 15-3 ([6]; clinical isolate ECO+ 15-3): 32 µg/mL
- Anti-bacterial activity (MIC), strain ECO+ 15-4 ([6]; clinical isolate ECO+ 15-4): 16 µg/mL
- Anti-bacterial activity (MIC), strain ECO− 15-1 ([6]; clinical isolate ECO− 15-1): 16 µg/mL
- Anti-bacterial activity (MIC), strain ECO− 15-2 ([6]; clinical isolate ECO− 15-2): 32 µg/mL
- Anti-bacterial activity (MIC), strain ECO− 15-3 ([6]; clinical isolate ECO− 15-3): 32 µg/mL
- Anti-bacterial activity (MIC), strain ECO− 15-4 ([6]; clinical isolate ECO− 15-4): 32 µg/mL
- inhibition at 30 µM ([12]; Homo sapiens, Bel-7402, 72 h): > 50%
- Inhibition of proliferation, Liver cancer BEL-7402 ([12]; 72 hours, 30 µM): 70%
- inhibition at 30 µM ([13]; Homo sapiens, MGC-803, 72 h): > 50%
- Inhibition of proliferation, Gastric cancer MGC-803 ([13]; 72 hours, 30 µM): 51%
- inhibition at 30 µM [14]: 45%
- MIC (the test strains): 0.5 to 2 µg/mL (≈ 1.22 to 4.87 µM)
- inhibition at 30 µM [8]: > 50%
- HCT116 inhibition rate/% ([8]; 30 µM): 59%
